The supplement of paper PMC10883282
± gives the standard deviation of the averaged measurements.

System: SYO-1
Test: relative viability vs DMSO control (72 h) (fraction); higher = more viable cells
Procedure, shortened: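 After seeding at densities set for 80–90% confluence in 384-well plates, sarcoma cell lines waited 24 h before 2.5 µl of serially diluted compound was added. Source plates held 10 mM down to 0.0002 mM. Plates were incubated 72 h at 37 °C with 5% CO2, with 0.1% DMSO vehicle and a 5 µM positive control, and relative viability was taken from ATPLite as percent growth averaged over up to triplicate wells, with 1 set as full and 0 as none.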

Row | Compound | relative viability (0.00017 µM) | relative viability (0.00051 µM) | relative viability (0.00152 µM) | relative viability (0.00457 µM) | relative viability (0.01372 µM) | relative viability (0.04115 µM) | relative viability (0.1235 µM) | relative viability (0.3704 µM) | relative viability (1.111 µM) | relative viability (3.333 µM) | relative viability (10 µM)
1 | Cc1cc(C)c(/C=C2\C(=O)Nc3ccccc32)[nH]1 [Semaxanib] | 0.922 ± 0.014 | 0.915 ± 0.01 | 0.917 ± 0.014 | 0.908 ± 0.025 | 0.87 ± 0.035 | 0.824 ± 0.056 | 0.774 ± 0.047 | 0.721 ± 0.03 | 0.649 ± 0.046 | 0.632 ± 0.041 | 0.579 ± 0.0071
2 | O=C(Nc1cnn2ccc(N3CCC[C@@H]3c3cc(F)ccc3F)nc12)N1CC[C@H](O)C1 [Larotrectinib] | 1.034 ± 0.0067 | 1.02 ± 0.021 | 0.979 ± 0.016 | 0.973 ± 0.047 | 0.946 ± 0.06 | 0.948 ± 0.063 | 0.926 ± 0.075 | 0.937 ± 0.043 | 0.885 ± 0.058 | 0.903 ± 0.062 | 0.875 ± 0.055
3 | C=CC(=O)N1CCC[C@@H](n2nc(-c3ccc(Oc4ccccc4)cc3)c3c(N)ncnc32)C1 [Ibrutinib] | 0.992 ± 0.034 | 0.959 ± 0.047 | 0.923 ± 0.036 | 0.933 ± 0.042 | 0.923 ± 0.046 | 0.892 ± 0.045 | 0.868 ± 0.041 | 0.861 ± 0.026 | 0.759 ± 0.055 | 0.557 ± 0.027 | 0.39 ± 0.02
4 | CC(C)N1CCN(Cc2cnc(-c3cc(-c4cccc5[nH]ccc45)cc4[nH]ncc34)o2)CC1 [Nemiralisib] | 1.02 ± 0.013 | 0.981 ± 0.046 | 0.981 ± 0.036 | 0.974 ± 0.049 | 0.981 ± 0.025 | 0.991 ± 0.02 | 0.9659 ± 0.0068 | 0.968 ± 0.017 | 0.882 ± 0.025 | 0.697 ± 0.028 | -0.0515 ± 0.012
5 | CN1CCN(c2ccc3nc(-c4c(N)c5c(F)cccc5[nH]c4=O)[nH]c3c2)CC1 [Dovitinib] | 1.04 ± 0.049 | 1.038 ± 0.0075 | 0.992 ± 0.037 | 0.998 ± 0.03 | 0.974 ± 0.014 | 0.927 ± 0.035 | 0.833 ± 0.0092 | 0.556 ± 0.012 | 0.388 ± 0.025 | 0.17 ± 0.023 | -0.0198 ± 0.0062
6 | COc1c(OCCCN2CCOCC2)ccc2c1N=C(NC(=O)c1cnc(N)nc1)N1CCN=C21 [Copanlisib] | 1 ± 0.011 | 0.945 ± 0.023 | 0.911 ± 0.051 | 0.79 ± 0.06 | 0.754 ± 0.041 | 0.693 ± 0.02 | 0.651 ± 0.052 | 0.52 ± 0.02 | 0.374 ± 0.012 | 0.171 ± 0.0084 | 0.0829 ± 0.006
7 | CNC(=O)c1ccc(-c2cnc3ncc(Cc4ccc5ncccc5c4)n3n2)cc1F [Capmatinib] | 0.956 ± 0.039 | 0.962 ± 0.044 | 0.966 ± 0.028 | 0.968 ± 0.015 | 0.97 ± 0.03 | 0.961 ± 0.042 | 0.97 ± 0.033 | 0.967 ± 0.026 | 0.994 ± 0.023 | 1.03 ± 0.03 | 1.01 ± 0.067
8 | Cn1cc(-c2cc3c(N4CCN(c5ncc([C@@](C)(N)c6ccc(F)cc6)cn5)CC4)ncnn3c2)cn1 [Avapritinib] | 0.92 ± 0.012 | 0.898 ± 0.031 | 0.882 ± 0.057 | 0.844 ± 0.087 | 0.807 ± 0.1 | 0.718 ± 0.054 | 0.629 ± 0.053 | 0.568 ± 0.03 | 0.534 ± 0.059 | 0.439 ± 0.039 | 0.319 ± 0.023
9 | CCCS(=O)(=O)Nc1ccc(F)c(C(=O)c2c[nH]c3ncc(-c4ccc(Cl)cc4)cc23)c1F [Vemurafenib] | 0.954 ± 0.056 | 0.955 ± 0.048 | 0.963 ± 0.04 | 0.966 ± 0.061 | 0.975 ± 0.051 | 0.967 ± 0.043 | 0.974 ± 0.024 | 1 ± 0.027 | 0.986 ± 0.042 | 0.95 ± 0.076 | 0.608 ± 0.072
10 | CC1(C)CNc2cc(NC(=O)c3cccnc3NCc3ccncc3)ccc21 [Motesanib] | 0.962 ± 0.012 | 0.979 ± 0.043 | 0.996 ± 0.05 | 0.974 ± 0.043 | 0.973 ± 0.025 | 0.914 ± 0.036 | 0.866 ± 0.029 | 0.777 ± 0.054 | 0.724 ± 0.021 | 0.648 ± 0.016 | 0.494 ± 0.019
11 | C=CC(=O)Nc1cccc(Oc2nc(Nc3ccc(N4CCN(C)CC4)cc3)nc3ccsc23)c1 [Olmutinib] | 0.957 ± 0.02 | 0.985 ± 0.043 | 0.955 ± 0.018 | 0.952 ± 0.01 | 0.953 ± 0.021 | 0.9712 ± 0.0081 | 0.972 ± 0.037 | 0.933 ± 0.017 | 0.908 ± 0.045 | 0.698 ± 0.044 | -0.00933 ± 0.0049
12 | COc1cc2nccc(Oc3ccc(NC(=O)Nc4cc(C)on4)c(Cl)c3)c2cc1OC [Tivozanib] | 0.97 ± 0.049 | 0.952 ± 0.04 | 0.935 ± 0.051 | 0.941 ± 0.023 | 0.887 ± 0.051 | 0.796 ± 0.053 | 0.765 ± 0.02 | 0.706 ± 0.03 | 0.618 ± 0.065 | 0.523 ± 0.025 | 0.393 ± 0.027
13 | CNC(=O)c1cc(Oc2ccc(NC(=O)Nc3ccc(Cl)c(C(F)(F)F)c3)c(F)c2)ccn1 [Regorafenib] | 1.02 ± 0.039 | 1.022 ± 0.0037 | 1.04 ± 0.05 | 1.01 ± 0.035 | 1.03 ± 0.02 | 0.999 ± 0.05 | 0.954 ± 0.065 | 0.755 ± 0.038 | 0.572 ± 0.022 | 0.476 ± 0.016 | 0.217 ± 0.016
14 | Cc1ccc(F)c(NC(=O)Nc2ccc(-c3cccc4[nH]nc(N)c34)cc2)c1 [Linifanib] | 0.98 ± 0.036 | 0.968 ± 0.087 | 0.957 ± 0.066 | 0.941 ± 0.035 | 0.906 ± 0.049 | 0.845 ± 0.085 | 0.76 ± 0.13 | 0.751 ± 0.093 | 0.769 ± 0.016 | 0.753 ± 0.055 | 0.711 ± 0.031
15 | Cc1cnc(Nc2ccc(OCCN3CCCC3)cc2)nc1Nc1cccc(S(=O)(=O)NC(C)(C)C)c1 [Fedratinib] | 0.982 ± 0.04 | 0.943 ± 0.078 | 0.941 ± 0.09 | 0.933 ± 0.037 | 0.898 ± 0.053 | 0.843 ± 0.027 | 0.748 ± 0.066 | 0.496 ± 0.052 | 0.132 ± 0.0092 | -0.0159 ± 0.0034 | -0.0172 ± 0.0037
16 | C=CC(=O)N1CCC([C@@H]2CCNc3c(C(N)=O)c(-c4ccc(Oc5ccccc5)cc4)nn32)CC1 [Zanubrutinib] | 0.982 ± 0.032 | 0.978 ± 0.025 | 0.976 ± 0.018 | 0.979 ± 0.018 | 0.984 ± 0.015 | 0.9556 ± 0.0067 | 0.967 ± 0.018 | 0.959 ± 0.06 | 0.97 ± 0.061 | 0.884 ± 0.076 | 0.763 ± 0.053
17 | CN1CCC(COc2cnc(-c3cccc(Cn4nc(-c5cccc(C#N)c5)ccc4=O)c3)nc2)CC1 [Tepotinib] | 1 ± 0.042 | 0.983 ± 0.042 | 0.974 ± 0.063 | 0.919 ± 0.061 | 0.946 ± 0.05 | 0.912 ± 0.038 | 0.916 ± 0.031 | 0.931 ± 0.06 | 0.884 ± 0.037 | 0.824 ± 0.033 | 0.608 ± 0.055
18 | Cc1nc(NC(=O)N2CCC[C@H]2C(N)=O)sc1-c1ccnc(C(C)(C)C(F)(F)F)c1 [Alpelisib] | 0.975 ± 0.071 | 0.944 ± 0.068 | 0.93 ± 0.049 | 0.919 ± 0.031 | 0.85 ± 0.099 | 0.805 ± 0.095 | 0.735 ± 0.1 | 0.68 ± 0.11 | 0.633 ± 0.063 | 0.6 ± 0.019 | 0.5521 ± 0.0025
